According to the NIST ThermoML archive (doi:10.1016/j.fluid.2007.06.019):
“And” between values parts separate entries of the source, which are not always exact repeats. Equal entries are not always repeated. Numbers after ± are expanded uncertainties.

Conditions: Liquid, Alternating current cell with electrodes

CCCCCCCC[n+]1ccn(C)c1.F[B-](F)(F)F [1-methyl-3-octylimidazolium tetrafluoroborate]
Conditions	electrical conductivity
273.23 K, 101.33 kPa	0.00961 ± 0.00058 S/m
273.37 K, 101.33 kPa	0.00973 S/m and 0.00997 S/m
278.15 K, 101.33 kPa	0.0144 S/m and 0.0148 S/m
283.15 K, 101.33 kPa	0.0211 S/m and 0.0218 S/m and 0.0212 S/m
288.15 K, 101.33 kPa	0.0303 S/m and 0.0305 S/m
288.16 K, 101.33 kPa	0.0312 ± 0.0019 S/m
293.15 K, 101.33 kPa	0.0435 S/m and 0.0423 S/m
293.16 K, 101.33 kPa	0.0427 ± 0.0026 S/m
298.15 K, 100 kPa	0.0587 ± 0.0036 S/m
298.15 K, 101.33 kPa	0.0584 S/m [middle of 5 runs]
298.15 K, 24500 kPa	0.0441 ± 0.0027 S/m
298.15 K, 49500 kPa	0.0333 ± 0.002 S/m
298.15 K, 73500 kPa	0.0257 ± 0.0016 S/m
298.15 K, 98400 kPa	0.0197 ± 0.0012 S/m
298.15 K, 122900 kPa	0.0152 ± 0.00093 S/m
298.15 K, 147100 kPa	0.012 ± 0.00073 S/m
298.15 K, 171600 kPa	0.00941 ± 0.00058 S/m
298.15 K, 196100 kPa	0.00742 ± 0.00046 S/m
298.16 K, 101.33 kPa	0.058 ± 0.0035 S/m
303.15 K, 101.33 kPa	0.076 S/m and 0.0794 S/m and 0.0775 S/m
308.15 K, 101.33 kPa	0.0992 S/m and 0.104 S/m and 0.102 S/m
313.15 K, 101.33 kPa	0.127 S/m and 0.131 S/m and 0.132 S/m
318.15 K, 101.33 kPa	0.16 S/m and 0.165 S/m and 0.167 S/m
323.11 K, 101.33 kPa	0.198 S/m and 0.205 S/m
323.13 K, 101.33 kPa	0.2 ± 0.012 S/m
323.15 K, 100 kPa	0.203 ± 0.013 S/m
323.15 K, 24500 kPa	0.162 ± 0.0099 S/m
323.15 K, 49300 kPa	0.13 ± 0.0079 S/m
323.15 K, 73500 kPa	0.106 ± 0.0064 S/m
323.15 K, 98100 kPa	0.0853 ± 0.0052 S/m
323.15 K, 122600 kPa	0.0695 ± 0.0042 S/m
323.15 K, 147600 kPa	0.0567 ± 0.0034 S/m
323.15 K, 171600 kPa	0.0468 ± 0.0028 S/m
323.15 K, 196100 kPa	0.0386 ± 0.0024 S/m
328.15 K, 101.33 kPa	0.244 S/m and 0.252 S/m
328.19 K, 101.33 kPa	0.246 ± 0.015 S/m
333.11 K, 101.33 kPa	0.304 ± 0.018 S/m
333.12 K, 101.33 kPa	0.294 ± 0.018 S/m
333.16 K, 101.33 kPa	0.298 ± 0.018 S/m
338.12 K, 101.33 kPa	0.355 ± 0.021 S/m
338.2 K, 101.33 kPa	0.353 S/m and 0.364 S/m
343.16 K, 101.33 kPa	0.42 ± 0.025 S/m
343.2 K, 101.33 kPa	0.416 S/m and 0.43 S/m
348.15 K, 100 kPa	0.486 ± 0.029 S/m
348.15 K, 24500 kPa	0.406 ± 0.025 S/m
348.15 K, 49000 kPa	0.339 ± 0.021 S/m
348.15 K, 73500 kPa	0.287 ± 0.017 S/m
348.15 K, 98400 kPa	0.242 ± 0.015 S/m
348.15 K, 122600 kPa	0.206 ± 0.012 S/m
348.15 K, 147100 kPa	0.175 ± 0.011 S/m
348.15 K, 171600 kPa	0.149 ± 0.009 S/m
348.15 K, 196100 kPa	0.128 ± 0.0077 S/m
348.16 K, 101.33 kPa	0.485 ± 0.029 S/m
348.17 K, 101.33 kPa	0.502 ± 0.03 S/m
348.24 K, 101.33 kPa	0.494 ± 0.03 S/m
353.15 K, 101.33 kPa	0.561 S/m and 0.581 S/m
353.21 K, 101.33 kPa	0.572 ± 0.034 S/m

CCCCCCCC[n+]1ccn(C)c1.F[P-](F)(F)(F)(F)F [1-octyl-3-methylimidazolium hexafluorophosphate]
Conditions	electrical conductivity
273.2 K, 101.33 kPa	0.00325 ± 0.0002 S/m
273.22 K, 101.33 kPa	0.00331 ± 0.0002 S/m
278.15 K, 101.33 kPa	0.0053 S/m and 0.0052 S/m
283.15 K, 101.33 kPa	0.00823 S/m and 0.00822 S/m and 0.00807 S/m
288.15 K, 101.33 kPa	0.0121 ± 0.00073 S/m
288.16 K, 101.33 kPa	0.0124 S/m
293.15 K, 101.33 kPa	0.0181 S/m and 0.0182 S/m and 0.0177 S/m
298.15 K, 100 kPa	0.0263 ± 0.0016 S/m
298.15 K, 101.33 kPa	0.0257 S/m [middle of 4 runs]
298.15 K, 19600 kPa	0.0202 ± 0.0012 S/m
298.15 K, 39200 kPa	0.0154 ± 0.00095 S/m
298.15 K, 49500 kPa	0.0134 ± 0.00083 S/m
298.15 K, 59100 kPa	0.0117 ± 0.00072 S/m
298.15 K, 78500 kPa	0.00918 ± 0.00057 S/m
298.15 K, 98100 kPa	0.00712 ± 0.00044 S/m
303.15 K, 101.33 kPa	0.036 S/m and 0.0353 S/m and 0.0358 S/m
308.15 K, 101.33 kPa	0.0479 S/m and 0.048 S/m
308.16 K, 101.33 kPa	0.0493 S/m and 0.0489 S/m
313.15 K, 101.33 kPa	0.0655 S/m and 0.0653 S/m
313.16 K, 101.33 kPa	0.0659 S/m and 0.0654 S/m
318.15 K, 101.33 kPa	0.0863 S/m [middle of 4 runs]
323.11 K, 101.33 kPa	0.108 ± 0.0065 S/m
323.13 K, 101.33 kPa	0.11 ± 0.0066 S/m
323.15 K, 100 kPa	0.107 ± 0.0069 S/m
323.15 K, 101.33 kPa	0.111 S/m
323.15 K, 24200 kPa	0.0814 ± 0.005 S/m
323.15 K, 49000 kPa	0.0625 ± 0.0038 S/m
323.15 K, 73500 kPa	0.0483 ± 0.0029 S/m
323.15 K, 98100 kPa	0.0375 ± 0.0023 S/m
323.15 K, 122600 kPa	0.0292 ± 0.0018 S/m
323.15 K, 147100 kPa	0.0229 ± 0.0014 S/m
323.15 K, 171300 kPa	0.0181 ± 0.0011 S/m
323.15 K, 196100 kPa	0.0143 ± 0.0009 S/m
328.11 K, 101.33 kPa	0.142 ± 0.0085 S/m
328.12 K, 101.33 kPa	0.141 ± 0.0085 S/m
328.13 K, 101.33 kPa	0.136 S/m and 0.137 S/m
333.11 K, 101.33 kPa	0.17 S/m
333.19 K, 101.33 kPa	0.173 ± 0.01 S/m
338.18 K, 101.33 kPa	0.209 S/m and 0.21 S/m
343.16 K, 101.33 kPa	0.254 ± 0.015 S/m
343.17 K, 101.33 kPa	0.253 ± 0.015 S/m
348.15 K, 100 kPa	0.29 ± 0.018 S/m
348.15 K, 24500 kPa	0.233 ± 0.014 S/m
348.15 K, 49300 kPa	0.188 ± 0.011 S/m
348.15 K, 73500 kPa	0.152 ± 0.0092 S/m
348.15 K, 98100 kPa	0.124 ± 0.0075 S/m
348.15 K, 122600 kPa	0.101 ± 0.0061 S/m
348.15 K, 147100 kPa	0.083 ± 0.005 S/m
348.15 K, 171600 kPa	0.0681 ± 0.0041 S/m
348.15 K, 195800 kPa	0.0562 ± 0.0034 S/m
348.17 K, 101.33 kPa	0.304 ± 0.018 S/m
348.18 K, 101.33 kPa	0.303 ± 0.018 S/m
353.17 K, 101.33 kPa	0.358 S/m and 0.36 S/m
